{"source": "patent US10987293B2", "about": "“Composition for skin external application” (DR. RAYMOND LABORATORIES, INC., priority 2018, dated 2021)", "tested_on": "fertilized eggs of the zebrafish", "assay": "Developmental toxicity in zebrafish", "assay_type": "in vivo", "details": "1, 10, 100 μg/mL; 4 hours exposure; judged 24 and 48 hours after fertilization", "procedure": "4. Confirmation of Presence of Developmental Toxicity in Zebrafish\nIn this case, a 1% DMSO aqueous solution that was a stock solution was used as the control material.\nSpecifically, each of the samples was prepared at concentrations of 1, 10, and 100 μg/mL using the stock solution. After each of the samples was adjusted to these concentrations, fertilized eggs of the zebrafish were exposed to each of the samples for 4 hours. 24 hours after fertilization (20 hours after the exposure to each of the samples) and 48 hours after fertilization (44 hours after the exposure to each of the samples), it was judged whether or not the samples were toxic overall. In this case, the toxicity was evaluated based on the indicators divided into eight categories (Normal Development; Death; Coagulated Egg; Necrotic Tissue; Eye Development Alteration; Edema (Pericardial Edema); Tail Formation; and General Retardation).\nThat is, it was confirmed that the serinol-based compound according to the present invention had no developmental toxicity.", "data": [{"smiles": "CCCCCCCCCCCCCCCC(=O)NC(CO)CO", "note": "[palmitoyl serinol]", "values": [{"measurement": "developmental toxicity (development of fertilized eggs)", "result": "developed normally"}]}]}
